pIC50: −log10 of the molar value.
Molecular target: T1, PLK4 (Homo sapiens, UniProt O00444)
T1 construct: expressed in transfected cells; host or cells: HEK293 T cells (ATCC CRL-3216)
T1 sequence (O00444 1-970): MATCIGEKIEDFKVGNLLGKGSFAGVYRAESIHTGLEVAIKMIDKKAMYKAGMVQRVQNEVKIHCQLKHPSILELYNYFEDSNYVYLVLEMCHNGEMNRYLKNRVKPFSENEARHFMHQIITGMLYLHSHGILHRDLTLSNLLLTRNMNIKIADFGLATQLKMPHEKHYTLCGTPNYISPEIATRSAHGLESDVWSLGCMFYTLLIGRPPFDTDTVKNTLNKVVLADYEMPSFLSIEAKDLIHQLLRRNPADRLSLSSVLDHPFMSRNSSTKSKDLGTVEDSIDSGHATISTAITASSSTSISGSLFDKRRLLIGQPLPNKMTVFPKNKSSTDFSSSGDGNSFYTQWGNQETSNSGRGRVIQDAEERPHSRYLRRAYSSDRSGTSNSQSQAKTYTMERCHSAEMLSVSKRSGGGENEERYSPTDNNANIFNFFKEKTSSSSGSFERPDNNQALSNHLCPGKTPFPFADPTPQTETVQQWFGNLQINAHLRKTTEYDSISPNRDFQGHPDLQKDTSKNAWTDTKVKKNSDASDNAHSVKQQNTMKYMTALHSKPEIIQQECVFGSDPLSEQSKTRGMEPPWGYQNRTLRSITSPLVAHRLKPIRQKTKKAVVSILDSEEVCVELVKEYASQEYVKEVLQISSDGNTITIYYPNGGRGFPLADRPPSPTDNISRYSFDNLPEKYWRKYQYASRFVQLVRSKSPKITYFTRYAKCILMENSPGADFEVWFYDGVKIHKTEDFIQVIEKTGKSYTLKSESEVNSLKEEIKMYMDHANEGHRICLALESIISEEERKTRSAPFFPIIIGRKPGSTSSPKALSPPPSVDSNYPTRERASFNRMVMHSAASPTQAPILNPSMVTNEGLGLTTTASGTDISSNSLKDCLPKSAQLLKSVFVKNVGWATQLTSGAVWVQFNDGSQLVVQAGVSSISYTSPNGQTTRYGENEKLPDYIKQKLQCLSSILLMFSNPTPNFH
Assay: PLK4 NanoBRET target engagement assay
Type: binding
Conditions: HEK293 T cells transfected with PLK4 NanoLuc fusion vector; K-5 tracer; 2 hrs incubation
Summary of the method: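 HEK293T cells transiently expressing PLK4-NanoLuc, plated at 17000 cells/well with K-5 tracer and compound, incubated 2 h at 37 °C/5% CO2. After substrate/inhibitor mix, 610/450 nm emission ratio ×1000 gave mBRET; IC50 from 4-parameter fit.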

Row | Structure (SMILES) | pIC50
1 | Cc1cc(Nc2nc(N(C)c3c(F)cc(S(C)(=O)=O)cc3F)nc(-c3cn(C)c(C(C)O)n3)c2C2CC2)n[nH]1 (stereo not drawn) [Compound 217] | 7.72
2 | Cc1cc(Nc2nc(N(C)c3c(F)cc(S(C)(=O)=O)cc3F)nc(-c3nn(C)cc3CO)c2C2CC2)n[nH]1 [Compound 218] | 7.28
3 | COCCn1cc(-c2nc(N(C)c3ccc(S(C)(=O)=O)cc3F)nc(Nc3cc(C)[nH]n3)c2C2CC2)c(C)n1 [Compound 219] | 7.74
4 | COCCn1ncc(-c2nc(N(C)c3ccc(S(C)(=O)=O)cc3F)nc(Nc3cc(C)[nH]n3)c2C2CC2)c1C [Compound 220] | 7.42
5 | COCCn1cc(-c2nc(N(C)c3cc(F)c(S(C)(=O)=O)cc3F)nc(Nc3cc(C)[nH]n3)c2C2CC2)c(C)n1 [Compound 221] | 7.92
6 | COCCn1ncc(-c2nc(N(C)c3cc(F)c(S(C)(=O)=O)cc3F)nc(Nc3cc(C)[nH]n3)c2C2CC2)c1C [Compound 222] | 7.82
7 | Cc1cc(Nc2nc(N(C)c3cc(F)c(S(C)(=O)=O)cc3F)nc(-c3cnn([C@H]4CC[C@H](O)CC4)c3)c2C2CC2)n[nH]1 [Compound 223] | 8.05
8 | COCCn1cc(-c2nc(N(C)c3cc(F)c(S(C)(=O)=O)cc3F)nc(Nc3cc(C)[nH]n3)c2C2CC2)nc1C [Compound 224] | 7.89
9 | Cc1cc(Nc2nc(N(C)c3c(F)cc(S(C)(=O)=O)cc3F)nc(-c3cn(CCO)cn3)c2C2CC2)n[nH]1 [Compound 225] | 7.05
10 | Cc1cc(Nc2nc(N(C)c3cc(F)c(S(C)(=O)=O)cc3F)nc(-c3ccn(CCO)n3)c2C2CC2)n[nH]1 [Compound 230] | 7.59
11 | Cc1cc(Nc2nc(N(C)c3c(F)cc(S(C)(=O)=O)cc3F)nc(N3CC(n4cccn4)C3)c2C2CC2)n[nH]1 [Compound 233] | 7.35
12 | Cc1cc(Nc2nc(N(C)c3c(F)cc(S(C)(=O)=O)cc3F)nc(-c3cn4c(n3)C(O)CC4)c2C2CC2)n[nH]1 (stereo not drawn) [Compound 234] | 7.31
13 | Cc1cc(Nc2nc(N(C)c3c(F)cc(S(C)(=O)=O)cc3F)nc(-n3ccccc3=O)c2C2CC2)n[nH]1 [Compound 235] | 5.96
14 | Cc1cc(Nc2nc(N(C)c3c(F)cc(S(C)(=O)=O)cc3F)nc(N3CC(n4ccnc4)C3)c2C2CC2)n[nH]1 [Compound 236] | 7.06
15 | Cc1cc(Nc2nc(N(CCO)c3c(F)cc(S(C)(=O)=O)cc3F)nc(-c3cn(C)cn3)c2C2CC2)n[nH]1 [Compound 238] | 7.47
16 | Cc1cc(Nc2nc(N(C)c3cc(F)c(S(C)(=O)=O)cc3F)nc(-c3cc4n(n3)CCOC4)c2C2CC2)n[nH]1 [Compound 243] | 7.80
17 | COC(C)c1nc(-c2nc(N(C)c3c(F)cc(S(C)(=O)=O)cc3F)nc(Nc3cc(C)[nH]n3)c2C2CC2)cn1C (stereo not drawn) [Compound 244] | 8.00

Row | Structure (SMILES) | pIC50
18 | CCN(c1nc(Nc2cc(C)[nH]n2)c(C2CC2)c(-c2cn(C)cn2)n1)c1cc(F)c(S(C)(=O)=O)cc1F [Compound 246] | 7.70
19 | Cc1cc(Nc2nc(N(C)c3cc(F)c(S(C)(=O)=O)cc3F)nc(-c3cnn(C)c3C(N)=O)c2C2CC2)n[nH]1 [Compound 248] | 7.48
20 | Cc1cc(Nc2nc(N(C)c3c(F)cc(S(C)(=O)=O)cc3F)nc(N3CCn4nccc4C3)c2C2CC2)n[nH]1 [Compound 250] | 7.68
21 | Cc1cc(Nc2nc(N(C)c3c(F)cc(S(C)(=O)=O)cc3F)nc(-c3cn(C)nc3C(N)=O)c2C2CC2)n[nH]1 [Compound 251] | 6.51
22 | Cc1cc(Nc2nc(N(C)c3c(F)cc(S(C)(=O)=O)cc3F)nc(-c3cn(C)nc3C(=O)N(C)C)c2C2CC2)n[nH]1 [Compound 252] | 7.32
23 | Cc1cc(Nc2nc(N(C)c3c(F)cc(S(C)(=O)=O)cc3F)nc(-c3cnn([C@H]4C[C@H](O)C4)c3)c2C2CC2)n[nH]1 [Compound 253] | 8.15
24 | Cc1cc(Nc2nc(N(C)c3c(F)cc(S(C)(=O)=O)cc3F)nc(-c3cn(C4CC(O)C4)cn3)c2C2CC2)n[nH]1 (stereo not drawn) [Compound 257] | 7.48
25 | Cc1cc(Nc2nc(N(C)c3c(F)cc(S(C)(=O)=O)cc3F)nc(-c3cn(CCOC(F)(F)F)c(C)n3)c2C2CC2)n[nH]1 [Compound 259] | 8.15
26 | CNC(=O)c1c(-c2nc(N(C)c3c(F)cc(S(C)(=O)=O)cc3F)nc(Nc3cc(C)[nH]n3)c2C2CC2)cnn1C [Compound 261] | 8.10
27 | Cc1cc(Nc2nc(N(C)c3c(F)cc(C(C)(C)O)cc3F)nc(-c3cn(C)cn3)c2C2CC2)n[nH]1 [Compound 262] | 7.74
28 | Cc1cc(Nc2nc(N(C)c3c(F)cc(S(C)(=O)=O)cc3F)nc(-c3cnn(C)c3C(=O)N3CCC3)c2C2CC2)n[nH]1 [Compound 263] | 8.05
29 | Cc1cc(Nc2nc(N(C)c3c(F)cc(S(C)(=O)=O)cc3F)nc(-c3cnn(C)c3C(=O)N3CC(F)(F)C3)c2C2CC2)n[nH]1 [Compound 264] | 7.60
30 | Cc1cc(Nc2nc(N(C)c3c(F)cc(S(C)(=O)=O)cc3F)nc(-c3cnc4cccnn34)c2C2CC2)n[nH]1 [Compound 267] | 8.22
31 | Cc1cc(Nc2nc(N(C)c3c(F)cc(S(C)(=O)=O)cc3F)nc(N3CC4(C3)CC(C)(O)C4)c2C2CC2)n[nH]1 [Compound 268] | 7.32
32 | Cc1cc(Nc2nc(N(C)c3c(F)cc(S(C)(=O)=O)cc3F)nc(N3CCc4c(ncn4C)C3)c2C2CC2)n[nH]1 [Compound 269] | 7.85
33 | Cc1cc(Nc2nc(N(C)c3c(F)cc(S(C)(=O)=O)cc3F)nc(N3Cc4cnn(C)c4C3)c2C2CC2)n[nH]1 [Compound 271] | 7.22

The remaining lines, values ahead:

Row | pIC50 | Structure (SMILES)
34 | 8.22 | Cc1cc(Nc2nc(N(C)c3c(F)cc(S(C)(=O)=O)cc3F)nc(-c3cn(CCS(C)(=O)=O)nc3C)c2C2CC2)n[nH]1 [Compound 226]
35 | 8.30 | Cc1cc(Nc2nc(N(C)c3c(F)cc(S(C)(=O)=O)cc3F)nc(-c3cnn(CCS(C)(=O)=O)c3C)c2C2CC2)n[nH]1 [Compound 227]
36 | 8.52 | CN(c1nc(Nc2cc(C3CC3)[nH]n2)c(C2CC2)c(-c2cn(C)cn2)n1)c1c(F)cc(S(C)(=O)=O)cc1F [Compound 228, 5-cyclopropyl-N^4-(5-cyclopropyl-1H-pyrazol-3-yl)-N^2-(2,6-difluoro-4-(methylsulfonyl)phenyl)-N^2-methyl-6-(1-methyl-1H-imidazol-4-yl)pyrimidine-2,4-diamine]
37 | 8.52 | Cc1cc(Nc2nc(N(C)c3c(F)cc(S(C)(=O)=O)cc3F)nc(-c3cn(CCF)c(C)n3)c2C2CC2)n[nH]1 [Compound 229]
38 | 8.40 | Cc1cc(Nc2nc(N(C)c3c(F)cc(S(C)(=O)=O)cc3F)nc(-c3cnn(C)c3C(N)=O)c2C2CC2)n[nH]1 [Compound 231]
39 | 8.30 | [2H]C([2H])([2H])OCc1nc(-c2nc(N(C)c3c(F)cc(S(C)(=O)=O)cc3F)nc(Nc3cc(C)[nH]n3)c2C2CC2)cn1C [Compound 237]
40 | 8.40 | Cc1cc(Nc2nc(N(C)c3c(F)cc(S(C)(=O)=O)cc3F)nc(-c3cc4n(n3)CCOC4)c2C2CC2)n[nH]1 [Compound 240]
41 | 8.40 | Cc1cc(Nc2nc(N(C)c3c(F)cc(S(C)(=O)=O)cc3F)nc(-c3cn(C4CC4)c(C)n3)c2C2CC2)n[nH]1 [Compound 241]
42 | 8.30 | Cc1cc(Nc2nc(N(C)c3cc(F)c(S(C)(=O)=O)cc3F)nc(-c3cn(C4CC4)c(C)n3)c2C2CC2)n[nH]1 [Compound 242]
43 | 8.30 | Cc1cc(Nc2nc(N(C)c3c(F)cc(S(C)(=O)=O)cc3F)nc(-c3cc4n(C)c(=O)ccn4n3)c2C2CC2)n[nH]1 [Compound 245]
44 | 8.70 | COCc1c(-c2nc(N(C)c3c(F)cc(S(C)(=O)=O)cc3F)nc(Nc3cc(C)[nH]n3)c2C2CC2)cnn1C [Compound 249]
45 | 8.40 | Cc1cc(Nc2nc(N(C)c3c(F)cc(S(C)(=O)=O)cc3F)nc(-c3cnn([C@H]4C[C@@H](O)C4)c3)c2C2CC2)n[nH]1 [Compound 254]
46 | 8.70 | COC1CCc2ncc(-c3nc(N(C)c4c(F)cc(S(C)(=O)=O)cc4F)nc(Nc4cc(C)[nH]n4)c3C3CC3)n2C1 (stereo not drawn) [Compound 255]
47 | 8.40 | CN(c1nc(Nc2cc(C3CC3)[nH]n2)c(C2CC2)c(-c2cnn(C)c2C(N)=O)n1)c1c(F)cc(S(C)(=O)=O)cc1F [Compound 256]
48 | 8.30 | CCc1cc(Nc2nc(N(C)c3c(F)cc(S(C)(=O)=O)cc3F)nc(-c3cnn(C)c3)c2C2CC2)n[nH]1 [Compound 258]
49 | 8.30 | Cc1cc(Nc2nc(N(C)c3c(F)cc(S(C)(=O)=O)cc3F)nc(-c3cnn(C)c3C(=O)N(C)C)c2C2CC2)n[nH]1 [Compound 260]
50 | 8.30 | CN(c1nc(Nc2cc(C3CC3)[nH]n2)c(C2CC2)c(-c2ccn(CCO)n2)n1)c1c(F)cc(S(C)(=O)=O)cc1F [Compound 265]
51 | 8.52 | COCc1nc(-c2nc(N(C)c3c(F)cc(S(C)(=O)=O)cc3F)nc(Nc3cc(C4CC4)[nH]n3)c2C2CC2)cn1C [Compound 272]
